In patent publication US6461997B1, “Triazole sulfones having herbicidal activity” (Monsanto Technology LLC, priority 1999, dated 2002):

What was measured:
ALOMY (blackgrass) = assay: Pre-emergence herbicidal activity, cool season; format: in vivo, Alopecurus myosuroides; details: GR80 = lowest tested rate (300, 100, 30, 10 g/ha) with 80% or greater inhibition; approx. 14 days after treating; 18/13° C.
Procedure, shortened: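 Each pot received seeds on sterilized fertilized topsoil, a soil cover, and a surface spray of compound (300–10 g/ha, acetone/water 50:50). Plants grew about 14 days at 30/21 °C (PANMI, DIGSA) or 18/13 °C (ALOMY, POLCO) before inhibition was rated against untreated pots to give GR80.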

soybean (GLYMX) = assay: Selectivity test, PPI, warm season crop; format: in vivo, Glycine max; details: PPI application; for inhibition at 10 g/ha / inhibition at 30 g/ha / inhibition at 100 g/ha / inhibition at 300 g/ha / inhibition at 900 g/ha: Glycine max, read-out: Percent inhibition GLYMX
Protocol: (§1) A pre-prepared topsoil mixture (described above) was placed in a pot and compacted to a depth of 1.0 to 1.25 cm from the top of the pot. Seeds of each of several monocotyledonous and dicotyledonous annual plant species were placed on top of the soil. A sufficient quantity of soil to cover the seeds and level fill the pot was weighed into an open container. A known amount of the test compound was dissolved or suspended in an organic solvent and applied by spraying to this cover soil. The cover soil was thoroughly mixed to distribute the test compound throughout the cover soil, and was then applied as a cover layer over the seeds. Untreated soil was used as a cover layer for control pots. After treatment the plants were placed in a greenhouse where they received 0.64 cm of overhead irrigation. All subsequent watering consisted of a light overhead mist and/or subirrigation as needed for germination and growth. Tables 9 and 10 below relate to warm season plant species which were placed after pre-emergence treatment in a greenhouse with a 30/21° C. day/night temperature regime. Tables 11 and 12 below relates to cool season plant species placed after pre-emergence treatment in a greenhouse or growth chamber with an 18/13° C. day/night temperature regime. Only the compounds of Examples 1, 6, 8, 11, 13 and 15-20 were included in PPI tests.
(§2) Approximately 14 days after planting and treating, the plants were observed and herbicidal efficacy recorded as percent inhibition by comparison with untreated plants.
Additional pre-emergence and PPI tests were conducted by the procedures described above, on warm and cool season weed species in the presence of crop species, to assess herbicidal selectivity. Crop species included in warm season tests were corn (Zea mays, ZEAMX), rice (Oryza sativa, ORYSA) and soybean (Glycine max, GLYMX). Crop species included in cool season tests were wheat (Triticum aestivum, TRZAW), barley (Hordeunm vulgare, HORVX) and oilseed rape (Brassica napus, BRSNS).
Tables 15 and 16 relate to pre-emergence and PPI tests respectively on warm season species. Table 17 relates to pre-emergence tests on cool season species.

[1] = test system: SORHA (johnsongrass (seedling)); assay: Pre-plant incorporated (PPI) herbicidal activity, warm season; format: in vivo, Sorghum halepense; details: for inhibition at 10 g/ha / inhibition at 30 g/ha / inhibition at 100 g/ha / inhibition at 300 g/ha / inhibition at 900 g/ha: Sorghum halepense, read-out: Percent inhibition SORHA; for inhibition at 10 g/ha / inhibition at 30 g/ha / inhibition at 100 g/ha / inhibition at 300 g/ha / inhibition at 900 g/ha / Percent inhibition SORHA: PPI application; for PPI activity GR80, SORHA: pre-plant incorporated, lowest tested rate with 80% or greater inhibition, about 14 days
Protocol: (§3) In another set of tests, the pre-plant incorporated (PPI) activity of compounds of this invention was evaluated on the same species as for the pre-emergence tests described above. In the PPI tests the following procedure, designed to simulate PPI application, was used.
as §1, §2

[2] = test system: VERPE (creeping speedwell); assay: Pre-emergence herbicidal activity, cool season; format: in vivo, Veronica persicaria; details: lowest tested rate with 80% or greater inhibition; rates 300, 100, 30, 10 g/ha; about 14 days
Procedure, shortened: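 Seeds sown in sterilised fertilised topsoil received surface-applied compound in 50:50 acetone/water, typically at 300, 100, 30 and 10 g/ha, then greenhouse-grown at 30/21° C (warm-season species) or 18/13° C (cool-season species). Percent inhibition versus untreated plants was scored at about 14 days, giving GR80; an asterisk marks activity short of 80% at the top rate.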

DIGSA (large crabgrass) = assay: Pre-plant incorporated (PPI) herbicidal activity, warm season; format: in vivo, Digitaria sanguinalis; details: for inhibition at 10 g/ha / inhibition at 30 g/ha / inhibition at 100 g/ha / inhibition at 300 g/ha / inhibition at 900 g/ha: Digitaria sanguinalis, read-out: Percent inhibition DIGSA; for inhibition at 10 g/ha / inhibition at 30 g/ha / inhibition at 100 g/ha / inhibition at 300 g/ha / inhibition at 900 g/ha / Percent inhibition DIGSA: PPI application; for PPI activity GR80, DIGSA: pre-plant incorporated, lowest tested rate with 80% or greater inhibition, about 14 days
Protocol: as §3, §1, §2

LOLMG (annual ryegrass) = assay: Pre-plant incorporated (PPI) herbicidal activity, cool season; format: in vivo, Lolium multiflorum; details: for inhibition at 30 g/ha / inhibition at 100 g/ha / inhibition at 300 g/ha / inhibition at 900 g/ha: Lolium multiflorum, read-out: Percent inhibition LOLMG; for inhibition at 30 g/ha / inhibition at 100 g/ha / inhibition at 300 g/ha / inhibition at 900 g/ha / Percent inhibition LOLMG: weed, PPI application; for PPI activity GR80, LOLMG: pre-plant incorporated, lowest tested rate with 80% or greater inhibition, about 14 days
Protocol: as §3, §1, §2

Structure (SMILES)	Pre-emergence activity (GR80) ALOMY (ALOMY (blackgrass))	PPI activity GR80, SORHA [1]	Pre-emergence activity GR80, VERPE [2]	PPI activity GR80, DIGSA (DIGSA (large crabgrass))	PPI activity GR80, LOLMG (LOLMG (annual ryegrass))	Percent inhibition GLYMX (soybean (GLYMX); 30 g/ha)	Percent inhibition GLYMX (soybean (GLYMX); 100 g/ha)	Percent inhibition GLYMX (soybean (GLYMX); 300 g/ha)	Percent inhibition GLYMX (soybean (GLYMX); 900 g/ha)	Percent inhibition SORHA ([1]; 30 g/ha)	Percent inhibition SORHA ([1]; 100 g/ha)	Percent inhibition SORHA ([1]; 300 g/ha)	Percent inhibition SORHA ([1]; 900 g/ha)	Percent inhibition DIGSA (DIGSA (large crabgrass); 30 g/ha)	Percent inhibition DIGSA (DIGSA (large crabgrass); 100 g/ha)	Percent inhibition DIGSA (DIGSA (large crabgrass); 300 g/ha)	Percent inhibition DIGSA (DIGSA (large crabgrass); 900 g/ha)	Percent inhibition LOLMG (LOLMG (annual ryegrass); 30 g/ha)	Percent inhibition LOLMG (LOLMG (annual ryegrass); 100 g/ha)	Percent inhibition LOLMG (LOLMG (annual ryegrass); 300 g/ha)	also measured
CCN(CC)C(=O)n1cnc(S(=O)(=O)C(F)(F)Br)n1 [Example 1, 3-(bromodifluoromethylsulfonyl)-1-(N,N-diethylcarbamoyl)-1,2,4-triazole]	300 g/ha	30 g/ha	100 g/ha	100 g/ha	300 g/ha	–	–	–	–	–	–	–	–	–	–	–	–	–	–	–	inhibition at 10 g/ha (soybean (GLYMX)): 0%; inhibition at 30 g/ha (soybean (GLYMX); 30 g/ha): 0%; inhibition at 100 g/ha (soybean (GLYMX); 100 g/ha): 0%; inhibition at 300 g/ha (soybean (GLYMX); 300 g/ha): 0%; inhibition at 900 g/ha (soybean (GLYMX); 900 g/ha): 40%; inhibition at 10 g/ha [1]: 70%; inhibition at 30 g/ha ([1]; 30 g/ha): 50%; inhibition at 100 g/ha ([1]; 100 g/ha): 100%; inhibition at 300 g/ha ([1]; 300 g/ha): 100%; inhibition at 900 g/ha ([1]; 900 g/ha): 100%; inhibition at 10 g/ha (DIGSA (large crabgrass)): 80%; inhibition at 30 g/ha (DIGSA (large crabgrass); 30 g/ha): 95%; inhibition at 100 g/ha (DIGSA (large crabgrass); 100 g/ha): 100%; inhibition at 300 g/ha (DIGSA (large crabgrass); 300 g/ha): 100%; inhibition at 900 g/ha (DIGSA (large crabgrass); 900 g/ha): 100%; inhibition at 30 g/ha (LOLMG (annual ryegrass); 30 g/ha): 95%; inhibition at 100 g/ha (LOLMG (annual ryegrass); 100 g/ha): 95%; inhibition at 300 g/ha (LOLMG (annual ryegrass); 300 g/ha): 100%; inhibition at 900 g/ha (LOLMG (annual ryegrass); 900 g/ha): 100%
CCN(CC)C(=O)n1cnc(S(=O)(=O)C(F)(F)F)n1 [Example 2]	100 g/ha	–	10 g/ha	–	–	0%	0%	10%	20%	70%	80%	100%	100%	85%	99%	90%	100%	40%	99%	100%	Percent inhibition LOLMG (LOLMG (annual ryegrass); 900 g/ha): 100%
CCN(CC)C(=O)n1cnc(S(=O)(=O)C(F)(F)Cl)n1 [Example 3]	100 g/ha	–	100 g/ha	–	–	0%	0%	0%	15%	99%	100%	100%	100%	70%	100%	100%	100%	40%	100%	100%	Percent inhibition LOLMG (LOLMG (annual ryegrass); 900 g/ha): 100%
CCN(CC)C(=O)n1cnc(S(=O)(=O)C(F)(F)C(F)(F)Br)n1 [Example 4]	300 g/ha	–	10 g/ha	–	–	0%	0%	0%	10%	60%	100%	100%	100%	85%	90%	100%	100%	80%	100%	100%	Percent inhibition LOLMG (LOLMG (annual ryegrass); 900 g/ha): 100%
CCN(CC)C(=O)n1cnc(S(=O)(=O)C(F)(F)C(=O)c2ccccc2)n1 [Example 6]	100 g/ha	100 g/ha	300 g/ha	100 g/ha	300 g/ha	–	–	–	–	–	–	–	–	–	–	–	–	–	–	–	–
CCSC(F)(F)S(=O)(=O)c1ncn(C(=O)N(CC)CC)n1 [Example 8, 1-(N,N-diethylcarbamoyl)-3-[difluoro(ethylthio)methylsulfonyl]-1,2,4-triazole]	100 g/ha	30 g/ha	30 g/ha	30 g/ha	100 g/ha	–	–	–	–	–	–	–	–	–	–	–	–	–	–	–	inhibition at 30 g/ha (soybean (GLYMX); 30 g/ha): 0%; inhibition at 100 g/ha (soybean (GLYMX); 100 g/ha): 10%; inhibition at 300 g/ha (soybean (GLYMX); 300 g/ha): 40%; inhibition at 900 g/ha (soybean (GLYMX); 900 g/ha): 65%; inhibition at 30 g/ha ([1]; 30 g/ha): 100%; inhibition at 100 g/ha ([1]; 100 g/ha): 90%; inhibition at 300 g/ha ([1]; 300 g/ha): 100%; inhibition at 900 g/ha ([1]; 900 g/ha): 100%; inhibition at 30 g/ha (DIGSA (large crabgrass); 30 g/ha): 100%; inhibition at 100 g/ha (DIGSA (large crabgrass); 100 g/ha): 100%; inhibition at 300 g/ha (DIGSA (large crabgrass); 300 g/ha): 100%; inhibition at 900 g/ha (DIGSA (large crabgrass); 900 g/ha): 100%; inhibition at 30 g/ha (LOLMG (annual ryegrass); 30 g/ha): 35%; inhibition at 100 g/ha (LOLMG (annual ryegrass); 100 g/ha): 100%; inhibition at 300 g/ha (LOLMG (annual ryegrass); 300 g/ha): 100%; inhibition at 900 g/ha (LOLMG (annual ryegrass); 900 g/ha): 100%
CCN(CC)C(=O)n1cnc(S(=O)(=O)C(F)(F)SC)n1 [Example 9]	300 g/ha	–	100 g/ha	–	–	0%	10%	20%	40%	100%	100%	100%	100%	95%	100%	100%	100%	60%	100%	100%	Percent inhibition LOLMG (LOLMG (annual ryegrass); 900 g/ha): 100%
CCN(CC)C(=O)n1cnc(S(=O)(=O)C(F)(F)C(F)(F)SC)n1 [Example 14]	100 g/ha	–	300 g/ha	–	–	–	–	–	–	–	–	–	–	–	–	–	–	–	–	–	–
CCN(CC)C(=O)n1cnc(S(=O)(=O)C(F)F)n1 [Example 15, 1-(N,N-diethylcarbamoyl)-3-(difluoromethylsulfonyl)-1,2,4-triazole]	–	30 g/ha	–	100 g/ha	100 g/ha	–	–	–	–	–	–	–	–	–	–	–	–	–	–	–	inhibition at 10 g/ha (soybean (GLYMX)): 0%; inhibition at 30 g/ha (soybean (GLYMX); 30 g/ha): 0%; inhibition at 100 g/ha (soybean (GLYMX); 100 g/ha): 0%; inhibition at 300 g/ha (soybean (GLYMX); 300 g/ha): 15%; inhibition at 900 g/ha (soybean (GLYMX); 900 g/ha): 65%; inhibition at 10 g/ha [1]: 40%; inhibition at 30 g/ha ([1]; 30 g/ha): 20%; inhibition at 100 g/ha ([1]; 100 g/ha): 100%; inhibition at 300 g/ha ([1]; 300 g/ha): 100%; inhibition at 900 g/ha ([1]; 900 g/ha): 95%; inhibition at 10 g/ha (DIGSA (large crabgrass)): 90%; inhibition at 30 g/ha (DIGSA (large crabgrass); 30 g/ha): 70%; inhibition at 100 g/ha (DIGSA (large crabgrass); 100 g/ha): 100%; inhibition at 300 g/ha (DIGSA (large crabgrass); 300 g/ha): 100%; inhibition at 900 g/ha (DIGSA (large crabgrass); 900 g/ha): 100%
